Source: ChEMBL document CHEMBL3872258, “Challenges in the development of an M4 PAM in vivo tool compound: The discovery of VU0467154 and unexpected DMPK profiles of close analogs” (Bioorg Med Chem Lett, 2017)

Assays:
[1] = target: T1, Muscarinic acetylcholine receptor M1 (Rattus norvegicus, UniProt P08482); experiment: Binding affinity to rat M1 receptor by radio-ligand binding assay
T1 sequence (P08482 whole entry): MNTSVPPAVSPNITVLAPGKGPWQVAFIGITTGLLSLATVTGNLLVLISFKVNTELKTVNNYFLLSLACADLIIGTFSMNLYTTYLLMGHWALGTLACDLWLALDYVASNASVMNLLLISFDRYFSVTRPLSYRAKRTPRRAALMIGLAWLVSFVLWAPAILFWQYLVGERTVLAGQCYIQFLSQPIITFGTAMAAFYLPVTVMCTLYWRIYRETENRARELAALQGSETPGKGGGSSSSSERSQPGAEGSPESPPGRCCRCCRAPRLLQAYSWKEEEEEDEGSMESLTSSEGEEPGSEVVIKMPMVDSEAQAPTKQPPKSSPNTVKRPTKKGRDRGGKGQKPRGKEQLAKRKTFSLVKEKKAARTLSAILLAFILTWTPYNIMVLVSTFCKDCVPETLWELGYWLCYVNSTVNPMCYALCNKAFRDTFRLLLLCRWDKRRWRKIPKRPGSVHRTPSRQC

[2] = target: T2, Muscarinic acetylcholine receptor M5 (Rattus norvegicus, UniProt P08911); experiment: Binding affinity to rat M5 receptor by radio-ligand binding assay
T2 sequence (P08911 whole entry): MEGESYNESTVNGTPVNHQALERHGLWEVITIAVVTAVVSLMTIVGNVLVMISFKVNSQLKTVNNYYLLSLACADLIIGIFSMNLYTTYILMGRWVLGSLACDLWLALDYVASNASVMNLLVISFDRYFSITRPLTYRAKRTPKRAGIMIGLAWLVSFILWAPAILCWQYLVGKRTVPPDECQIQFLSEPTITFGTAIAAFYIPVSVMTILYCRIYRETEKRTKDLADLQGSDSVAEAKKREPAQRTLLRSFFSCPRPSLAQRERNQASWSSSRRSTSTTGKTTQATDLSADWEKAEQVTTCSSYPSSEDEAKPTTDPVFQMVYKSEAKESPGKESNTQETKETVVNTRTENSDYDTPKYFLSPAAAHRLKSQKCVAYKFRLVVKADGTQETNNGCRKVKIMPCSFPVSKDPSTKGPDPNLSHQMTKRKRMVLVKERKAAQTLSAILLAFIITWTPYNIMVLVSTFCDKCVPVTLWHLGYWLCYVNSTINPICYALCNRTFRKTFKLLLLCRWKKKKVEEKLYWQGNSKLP

[3] = Unbound fraction in rat brain; assay type: ADME, tissue-based; conditions: for fraction unbound: brain
[4] = test system: Rattus norvegicus; experiment: Reversal of amphetamine-induced hyperlocomotion in Sprague-Dawley rat at 10 mg/kg, po administered 30 mins after habituation in the chamber followed by amphetamine injection measured for 60 mins; assay type: functional
[5] = target: Cytochrome P450 3A4 (Homo sapiens, UniProt P08684); experiment: Inhibition of CYP3A4 (unknown origin); assay type: ADME
[6] = target: T3, Muscarinic acetylcholine receptor M4 (Rattus norvegicus) (UniProt P08485); experiment: Positive allosteric modulation of rat M4 receptor expressed in CHO cells co-expressing Gqui5 by calcium mobilization assay relative to acetylcholine; assay type: functional, cell-based
T3 sequence (whole entry): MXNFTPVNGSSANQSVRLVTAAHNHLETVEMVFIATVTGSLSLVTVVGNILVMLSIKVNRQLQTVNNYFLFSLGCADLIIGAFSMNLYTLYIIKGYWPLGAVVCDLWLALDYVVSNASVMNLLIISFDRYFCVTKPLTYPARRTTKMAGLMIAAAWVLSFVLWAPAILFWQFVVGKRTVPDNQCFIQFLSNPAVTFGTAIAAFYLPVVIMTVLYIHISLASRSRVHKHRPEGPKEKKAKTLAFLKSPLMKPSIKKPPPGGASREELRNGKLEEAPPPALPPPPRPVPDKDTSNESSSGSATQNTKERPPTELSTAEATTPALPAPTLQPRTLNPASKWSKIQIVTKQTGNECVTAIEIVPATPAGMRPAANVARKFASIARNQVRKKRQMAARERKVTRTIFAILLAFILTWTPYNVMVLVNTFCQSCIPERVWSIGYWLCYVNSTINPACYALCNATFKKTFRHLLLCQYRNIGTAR

[7] = Intrinsic clearance in human; assay type: ADME
[8] = target: T4, Muscarinic acetylcholine receptor M2 (Rattus norvegicus, UniProt P10980); experiment: Binding affinity to rat M2 receptor by radio-ligand binding assay
T4 sequence (P10980 whole entry): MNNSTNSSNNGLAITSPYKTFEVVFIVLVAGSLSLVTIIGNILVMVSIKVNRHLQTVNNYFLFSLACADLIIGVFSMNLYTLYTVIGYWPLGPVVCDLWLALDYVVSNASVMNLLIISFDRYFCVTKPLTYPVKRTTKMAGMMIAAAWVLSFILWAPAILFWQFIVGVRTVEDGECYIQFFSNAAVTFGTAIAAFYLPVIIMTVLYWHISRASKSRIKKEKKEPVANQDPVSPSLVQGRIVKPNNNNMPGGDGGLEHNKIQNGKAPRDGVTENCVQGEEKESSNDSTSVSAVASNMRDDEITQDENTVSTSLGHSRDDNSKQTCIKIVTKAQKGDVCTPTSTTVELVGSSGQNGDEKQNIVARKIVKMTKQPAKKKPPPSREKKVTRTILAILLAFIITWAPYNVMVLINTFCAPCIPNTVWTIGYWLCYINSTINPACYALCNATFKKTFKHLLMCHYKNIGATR

[9] = target: T5, Muscarinic acetylcholine receptor M5 (Homo sapiens, UniProt P08912); experiment: Binding affinity to human M5 receptor by radio-ligand binding assay
T5 sequence (P08912 whole entry): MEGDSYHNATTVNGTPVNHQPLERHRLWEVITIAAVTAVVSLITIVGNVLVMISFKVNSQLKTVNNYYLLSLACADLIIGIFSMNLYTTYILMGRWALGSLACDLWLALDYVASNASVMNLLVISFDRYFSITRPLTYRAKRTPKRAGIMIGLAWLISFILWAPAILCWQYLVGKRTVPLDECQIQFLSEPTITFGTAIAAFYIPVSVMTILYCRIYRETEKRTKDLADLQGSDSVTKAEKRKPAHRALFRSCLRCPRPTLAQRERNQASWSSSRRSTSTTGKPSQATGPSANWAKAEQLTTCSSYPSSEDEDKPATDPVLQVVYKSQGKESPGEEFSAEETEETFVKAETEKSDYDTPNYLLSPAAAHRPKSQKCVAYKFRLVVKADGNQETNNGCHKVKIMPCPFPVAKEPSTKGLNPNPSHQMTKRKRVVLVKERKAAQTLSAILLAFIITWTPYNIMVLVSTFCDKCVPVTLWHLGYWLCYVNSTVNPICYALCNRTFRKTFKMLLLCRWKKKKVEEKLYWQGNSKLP

[10] = target: Muscarinic acetylcholine receptor M3 (Homo sapiens, UniProt P20309); experiment: Displacement of [3H]-N-Methylscopolamine from human M3 receptor expressed in CHOK1 cells; assay type: cell-based, CHO-K1
[11] = Ratio of total drug level in Sprague-Dawley rat brain to plasma at 0.20-0.25 mg/kg, iv at 0.25 hrs

Sequence of Cytochrome P450 3A4 (P08684 whole entry): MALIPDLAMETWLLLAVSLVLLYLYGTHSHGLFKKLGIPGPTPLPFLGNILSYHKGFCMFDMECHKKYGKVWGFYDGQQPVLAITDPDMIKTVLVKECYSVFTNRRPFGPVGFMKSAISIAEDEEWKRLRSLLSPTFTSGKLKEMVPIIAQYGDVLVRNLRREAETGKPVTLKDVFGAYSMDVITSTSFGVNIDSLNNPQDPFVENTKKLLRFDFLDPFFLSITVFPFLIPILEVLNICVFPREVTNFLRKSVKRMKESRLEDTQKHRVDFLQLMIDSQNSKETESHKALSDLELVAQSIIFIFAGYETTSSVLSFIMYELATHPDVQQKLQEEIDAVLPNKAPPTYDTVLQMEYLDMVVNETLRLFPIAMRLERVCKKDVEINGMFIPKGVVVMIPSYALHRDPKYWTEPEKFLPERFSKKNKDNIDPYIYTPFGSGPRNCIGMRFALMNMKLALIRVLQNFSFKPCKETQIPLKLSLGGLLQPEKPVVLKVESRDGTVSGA
Sequence of Muscarinic acetylcholine receptor M3 (P20309 whole entry): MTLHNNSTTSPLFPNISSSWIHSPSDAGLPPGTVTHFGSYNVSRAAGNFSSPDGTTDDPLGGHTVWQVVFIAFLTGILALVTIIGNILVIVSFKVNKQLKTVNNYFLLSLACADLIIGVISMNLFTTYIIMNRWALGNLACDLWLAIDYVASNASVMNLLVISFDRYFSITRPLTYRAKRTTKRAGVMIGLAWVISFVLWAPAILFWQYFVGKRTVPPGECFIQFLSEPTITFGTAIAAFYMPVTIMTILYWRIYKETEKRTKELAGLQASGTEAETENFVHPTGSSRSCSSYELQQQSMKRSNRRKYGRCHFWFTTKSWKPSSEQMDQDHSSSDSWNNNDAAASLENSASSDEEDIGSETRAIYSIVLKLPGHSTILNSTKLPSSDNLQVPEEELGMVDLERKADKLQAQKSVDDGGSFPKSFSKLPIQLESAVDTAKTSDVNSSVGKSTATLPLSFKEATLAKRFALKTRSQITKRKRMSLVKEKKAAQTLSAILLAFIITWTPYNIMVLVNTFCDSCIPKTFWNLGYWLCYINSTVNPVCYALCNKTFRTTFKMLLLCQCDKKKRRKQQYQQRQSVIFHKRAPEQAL

Row | Compound | EC50 [1] | EC50 [2] | fraction unbound [3] | Activity [4] | IC50 [5] | Emax [6] | CLint scaled [7] | EC50 [8] | EC50 [9] | EC50 [10] | Kp [11] | Fu [3]
1 | Cc1nnc2sc(C(=O)NCc3ccc(S(=O)(=O)C(F)F)cc3)c(N)c2c1C | > 30 µM | > 30 µM | 0.062 | 49.3% | > 30 µM | 65.2% | 15.6 mL/min/kg | > 30 µM | > 30 µM | > 30 µM | 0.11 | 
2 | Cc1nnc2sc(C(=O)NCc3ccc(S(F)(F)(F)(F)F)cc3)c(N)c2c1C | > 30 µM | > 30 µM | 0.004 | 66.3% | > 30 µM | 75.7% | 52.8 mL/min/kg | > 30 µM | > 30 µM | > 30 µM | 1 | 
3 | Cc1nnc2sc(C(=O)NCc3ccc(S(=O)(=O)C(F)(F)F)cc3)c(N)c2c1C | > 30 µM | > 30 µM |  | 55.3% | > 30 µM | 68.1% | 19.8 mL/min/kg | > 30 µM | > 30 µM | > 30 µM | 0.49 | 0.067
